Results as given in US8987234B2, “Complex for treatment and/or prophylaxis of parasitic infections” (IPCA Laboratories Ltd., priority 2009, dated 2015).

Assays:
physchem = assay type: physicochemical
[1] = tablet formulation, Malarone label; cited from earlier work
[2] = Comparative rat pharmacokinetic study, plasma analyzed by LC MS/MS; assay type: in vivo, albino Wistar rats
Protocol: Comparative pharmacokinetic study of complex of example-I at two doses with physical mixtures of Atovaquone and Proguanil hydrochloride (Malarone) was carried for profiling of bioavailability of Atovaquone, Proguanil and Cycloguanil from all three samples. Four groups of 13-14 weeks old five albino Wistar rats were made through random selection. Group I served as a vehicle control and received only 0.5% sodium carboxymethyl cellulose, group II and group III received two different doses of complex of Example I, and group IV received a physical mixture of Atovaquone and Proguanil hydrochloride (Malarone). The dose volume used for this study was 10 ml/Kg of body weight. Orbital sinus was used as blood collection site and the blood was collected in EDTA coated microcentrifuge tubes at different time points between 0 min (pre dose) to 240 hrs. Plasma samples were analyzed by LC MS/MS. Comparative pharmacokinetic profiles of Atovaquone, Proguanil and Cycloguanil are as given below in table 3, 4, and 5 respectively: […]

[3] = Intrinsic dissolution/solubility under standard USP conditions (40% isopropyl alcohol with phosphate buffer pH 8.0); assay type: physicochemical

## O=C1C(O)=C([C@H]2CC[C@H](c3ccc(Cl)cc3)CC2)C(=O)c2ccccc21 [Atovaquone, trans-2-[4-(4-chlorophenyl)cyclohexyl]-3-hydroxy-1,4-naphthoquinone]
physchem
  pKa: 8.39
[1]
  absolute bioavailability of Atovaquone: 23%

## CC(C)NC(=N)NC(=N)Nc1ccc(Cl)cc1.O=C1C(O)=C([C@H]2CC[C@H](c3ccc(Cl)cc3)CC2)C(=O)c2ccccc21 [Complex, trans-Atovaquone-Proguanil complex (1:1)]
[2]
  Atovaquone bioavailability increase versus corresponding ratio of physical mixture: increased by at least two times
[2]; Atovaquone dose 6.166 mg/kg
  AUC0-inf of Atovaquone: 298501.894 ng/hrxml
  Cmax of Atovaquone: 4925.009 ng/mL
  MRT of Atovaquone: 39.240 h
  T1/2 of Atovaquone: 26.833 h
  Tmax of Atovaquone: 19.200 h
  Vd of Atovaquone: 0.001 L/kg
[2]; Atovaquone dose 6.166 mg/kg (Table 3)
  AUC0-inf of Atovaquone: 298501.894 ± 117805.568 ng/hr × mL
[2]; Atovaquone dose 13.005 mg/kg
  AUC0-inf of Atovaquone: 472148.864 ng/hrxml
  Cmax of Atovaquone: 6779.226 ng/mL
  MRT of Atovaquone: 50.644 h
  T1/2 of Atovaquone: 29.542 h
  Tmax of Atovaquone: 12.8 h
  Vd of Atovaquone: 0.001 L/kg
[2]; Proguanil dose 4.2642 mg/kg
  AUC0-inf of Cycloguanil: 38.910 ng/hrxml
  AUC0-inf of Proguanil: 497.306 ng/hrxml
  Cl of Cycloguanil: 0.118 L/kg/hr
  Cl of Proguanil: 0.15 mL/min/kg
  Cmax of Cycloguanil: 4.667 ng/ml
  Cmax of Proguanil: 87.400 ng/mL
  MRT of Cycloguanil: 5.753 hr
  MRT of Proguanil: 5.581 h
  T1/2 of Cycloguanil: 5.620 hr
  T1/2 of Proguanil: 4.779 h
  Tmax of Cycloguanil: 3.200 hr
  Tmax of Proguanil: 2.800 h
  Vd of Cycloguanil: 0.873 L/Kg
  Vd of Proguanil: 0.061 L/kg
[2]; Proguanil dose 8.995 mg/kg
  AUC0-inf of Cycloguanil: 34.797 ng/hrxml
  AUC0-inf of Proguanil: 485.239 ng/hrxml
  Cl of Cycloguanil: 0.261 L/kg/hr
  Cl of Proguanil: 0.317 mL/min/kg
  Cmax of Cycloguanil: 6.954 ng/ml
  Cmax of Proguanil: 94.515 ng/mL
  MRT of Cycloguanil: 5.106 hr
  MRT of Proguanil: 4.933 h
  T1/2 of Cycloguanil: 4.406 hr
  T1/2 of Proguanil: 13.149 h
  Tmax of Cycloguanil: 2.00 hr
  Tmax of Proguanil: 1.15 h
  Vd of Cycloguanil: 1.618 L/Kg
  Vd of Proguanil: 0.349 L/kg
[3]; 1 Hrs.
  % Dissolution Atovaquone: 2.64%
  % Dissolution Proguanil: 1.97%
[3]; 2 Hrs.
  % Dissolution Atovaquone: 5.61%
  % Dissolution Proguanil: 3.64%
[3]; 3 Hrs.
  % Dissolution Atovaquone: 7.72%
  % Dissolution Proguanil: 5.22%
[3]; 4 Hrs.
  % Dissolution Atovaquone: 9.75%
  % Dissolution Proguanil: 6.38%
[3]; 40% isopropyl alcohol with phosphate buffer pH 8.0
  intrinsic solubility of Atovaquone compared with physical mixture of Atovaquone-Proguanil: almost doubled
